The subject of test [1] is NOD/ShiLtJ T cells on TNFα-activated MS1 islet endothelial cells. The experiment in a line: Parallel plate flow chamber T cell adhesion assay with SDF-1 peptide mimetic. In kind it is cell-based, mouse. The conditions noted are these: MS1 cells treated 4 hours with 10 ng/ml TNFα; 150 mPa. The method, then:
Hydrodynamic flow chamber assays were performed as otherwise described in C. Sharp et al. (2008). Briefly, T cells isolated as described above were labeled with CellTracker Green (C7025; Life Technologies, Carlsbad, Calif., USA), rinsed, and resuspended at a concentration of 2×10^6 cells/ml in phenol red-free Hanks' balanced salt solution (HBSS). The cells were placed in a beaker that had been previously coated with Sigmacote (Sigma-Aldrich), kept at 37° C., and stirred at 60 rev/min. A flow chamber insert and gasket with a 0.5 cm flow width and 250 μm thickness (GlycoTech, Gaithersburg, Md., USA) were used with 35 mm cell culture dishes containing confluent MS1 cell cultures to form a parallel plate flow chamber. To activate endothelial cells, MS1 cells were treated for 4 to 6 hours at 37° C. with 10 ng/ml recombinant mouse TNFα (T7539; Sigma).
For the SDF-1 peptide mimetic T cell adhesion assay, MS1 cells were rinsed with HBSS and treated for 10 minutes with an SDF-1 peptide mimetic (AYWKENKEQ with two branched lysines as a linker between the two motifs, SEQ ID NO 1) at […]. This peptide was a linearized version of a cyclized SDF-1 analogue reported by Tudan et al., “C-terminal cyclization of an SDF-1 small peptide analogue dramatically increases receptor affinity and activation of CXCR4 receptor,” J. Med. Chem., vol. 45, pp. 2024-31 (2002). T cells were pumped through polypropylene tubing by a syringe pump (KD Scientific, Holliston, Mass., USA) across the endothelial monolayer at a physiological shear stress of 150 mPa. Real-time digital video images (minimum 28 frames/second) were captured with an epifluorescence microscope (TE-2000 Eclipse; Nikon, Tokyo, Japan) and digital camera (Model C4742-95-12ER: Hamamatsu Photonics, Hamamatsu, Japan). Simple PCI software (Hamamatsu Photonics) was used to analyze the video and to measure T cell rolling velocities. Cells were considered firmly adherent if they remained stationary for 10 seconds within the field of view. A minimum of three videos per plate and four plates per condition were used for analysis.
We examined whether a linear SDF-1 peptide mimetic containing the receptor-binding site could replicate the effect of full length SDF-1 in blocking adhesion of T cells to activated endothelium. MS1 cells were treated for 4 hours with 10 ng/ml TNFα, followed by treatment for 10 minutes with an SDF-1 peptide mimetic at 200, 1000, or 5000 ng/ml. Cells were then tested in a parallel plate flow chamber cell adhesion assay. Fluorescently labeled T cells obtained from NOD/ShiLtJ mice flowed over the endothelial monolayers at 150 mPa. […] Leucocyte adhesion videos were analyzed to calculate T cell rolling velocity and to determine whether the decrease in firm adhesion was due to a decreased number of rolling cells.

Test [2] relates to NOD/ShiLtJ T cells on MS1 endothelial cells. The test can be described thus: Anti-ROBO1 T cell detachment assay on MS1 endothelial monolayers under step-wise shear stress. In kind it is cell-based, mouse. The settings on record: TNFα stimulation of MS1 cells versus unstimulated control. The method, then:
T cell detachment assays were performed as otherwise described in C. Sharp et al. (2008). T cells were injected into the tubing via an inlet port upstream of the flow chamber at a concentration of 2×10^6 cells/ml and allowed to firmly adhere under static conditions for 15 minutes. Next, shear stress was initiated and increased in a step-wise manner every 30 seconds as follows: 35, 56, 91, 224, 504, and 980 mPa. The assay was recorded by video, which was analyzed to determine the percentage of cells detached at the end of each shear stress interval. For the anti-ROBO1 detachment assay, MS1 cells were treated for […] at 37° C. with TNFα as described above and then with 100 ng/ml recombinant mouse SDF-1α (460-SD; R&D Systems). T cells were pre-treated for 30 minutes at 37° C. with 20 μg/ml ROBO1 blocking antibody (GT15144; Neuromics, Edina, Minn., USA) or isotype control (GT15900; Neuromics).
Having established that T cell levels of ROBO1 differ between C57BL/6J and NOD/ShiLtJ mice, we investigated whether SDF-1-mediated firm adhesion defects were dependent on ROBO1-SLIT2 binding. We used a parallel plate flow chamber detachment assay. NOD/ShiLtJ T cells were first allowed to statically adhere to islet endothelial cell monolayers. […]

“Also recorded” adds a separate entry of the source.

With TNFα, in test [1], the “TNFα-induced adhesion versus untreated endothelium” value is on record as “five times greater”. Besides, in test [2], the “T cell attachment / resistance to shear-mediated detachment” value is on record as “increased attachment; also recorded: increased the resistance of T cells to shear-mediated detachment”.

The values are drawn from patent US10697960B2, “CXCR4 and ROBO1 expression as markers for autoimmune diabetes” (BOARD OF SUPERVISORS OR LOUISANA STATE UNIVERSITY AND …, priority 2012, dated 2020).
